Test results from patent publication US12186413B2, “Non-cellular root canal filler and non-cellular dental tissue regeneration promotion kit” (KOWA COMPANY, LTD., priority 2019, dated 2025).
Like-named read-outs stand apart in the source and are kept apart here.

Key:
dental pulp [1] = test: Dental pulp regeneration after pulpectomy in young dogs with non-cellular root canal filler; type: in vivo, dog; settings: for dental pulp regeneration (H-E staining, morphological observation) / infiltration / internal absorption of inflammatory cells: 12-month-old dogs; for dental pulp regeneration (H-E staining, morphological observation) / infiltration / internal absorption of inflammatory cells / regeneration of dental pulp-like tissues (H-E staining): trypsin pretreatment; for dental pulp regeneration (H-E staining, morphological observation): 1.25 μg compound B or 0.83 μg SB328437 + 150 ng G-CSF in 20 μl collagen; for infiltration / internal absorption of inflammatory cells: filler with G-CSF and collagen; for amount of the regenerated dental pulp (ratio of regenerated dental pulp area to dental pulp cavity area): compound B filler compared with SB328437 filler
Description: After general anesthesia, pulpectomy was performed for maxillary and mandibular right and left anterior teeth in young (12-month-old) dogs. The openings were enlarged to the apex of the root with #55, then washed alternately with a 5% sodium hypochlorite solution and a 3% hydrogen peroxide solution, further washed with saline, dried, and then temporarily sealed with a resin completely. At 3 to 12 days after the pulpectomy, the temporary seals were removed, and the openings were washed alternately and washed with saline again. Then, the root canals were filled with 3% EDTA (Smear Clean, Nippon Shika Yakuhin Co., Ltd.), treated for 2 minutes, further washed with saline, and dried. Then, the root canals were pretreated by the application of trypsin preparation (5 mg of Francetin T powder (2,500 USP crystal trypsin per 10 mg, Mochida Pharmaceutical Co., Ltd.)/ml of 0.5% nanobubble water (prepared with Foamest 8 (NAC Corp.); see Koichiro Iohara and Misako Nakajima “Enhanced Delivery of Antibacterial Nanopolymers with Nanobubbles for the Complete Disinfection of the Root Canal System in a Canine Model of Intractable Periapical Disease”, The Japanese Journal Of Conservative Dentistry, Vol. 63, No. 1, p. 73-82) for 10 minutes, and then washed with saline. Subsequently, a CCR3 antagonist (1.25 μg of compound B or 0.83 μg of SB328437 (Tocris Bioscience)) as a regeneration promoting compound and 150 ng of G-CSF (Neutrogin, Chugai Pharmaceutical Co., Ltd.) as a chemotactic factor were added to 20 μl of extracellular matrix collagen (Koken Atelocollagen Implant, Koken Co., Ltd.) to prepare a non-cellular root canal filler, which was then filled into the root canals. Then, a gelatin sponge for hemostasis (Spongel, Astellas Pharma Inc.) was placed thereon, and the cavities were completely sealed with glass ionomer cement and a photopolymerizable resin. Then, 28 days after transplantation, the teeth were extracted, and 5 μm paraffin sections were prepared on longitudinal sections according to a standard method, stained with H-E, and then morphologically observed. The amount of the regenerated dental pulp was evaluated by measuring the ratio of the area of regenerated dental pulp to the area of a dental pulp cavity as to four sections per sample, and calculating the mean of four samples. Angiogenesis was evaluated by staining day 28 specimens with Fluorescein labeled Griffonia simplicifolia (Bandeiraea simplicifolia) Lectin I (GSL I, BSL I) and Fluorescein labeled Galanthus nivalis (Snowdrop) Lectin (GNL) (Vector Laboratories) (20 μg/ml) for 15 minutes, followed by comparative examination. Neurite extension was evaluated by immunostaining day-28 specimens with an anti-PGP9.5 antibody (UltraClone, 1:10,000), followed by comparative examination.
After general anesthesia, pulpectomy was performed for maxillary and mandibular right and left anterior teeth in young (11-month-old) dogs. The openings were enlarged to the apex of the root with #55, then washed alternately with a 5% sodium hypochlorite solution and a 3% hydrogen peroxide solution, and further washed with saline. The root canals were thoroughly dried with a paper point and temporarily sealed with cement and a resin completely after hemostasis. Then, 8 days after the pulpectomy, the temporary seals were removed, and the openings were washed alternately and washed with saline again. Then, the root canals were filled with 3% EDTA (Smear Clean, Nippon Shika Yakuhin Co., Ltd.), treated for 2 minutes, further washed with saline, and dried. Then, the root canals were pretreated by the application of a trypsin preparation (5 mg of Francetin T powder (2,500 USP crystal trypsin per 10 mg), Mochida Pharmaceutical Co., Ltd.)/ml of 0.5% nanobubble water (prepared with Foamest 8 (NAC Corp.); as described in Example 1)) for 10 minutes, and then washed with saline. […]

dental pulp stem cells = settings: dentin surfaces treated with trypsin in vitro; cited from earlier work
dental pulp [2] = settings: cited from earlier work
[3] = Example 3, compound B filler, 28 days
[4] = Example 3, with and without trypsin pretreatment, 28 days

CC(C)Nc1ccc(CNCCN2Cc3ccc(F)cc3CC2Cc2ccc(F)cc2)cc1.O=C(O)/C=C/C(=O)O (single isomer, unassigned; (+)) [compound B, (+)-4-[[2-[6-fluoro-3-(4-fluorobenzyl)-3,4-dihydroisoquinolin-2(1H)-yl]ethylamino]methyl]-N-isopropylaniline monofumarate]
dental pulp regeneration (H-E staining, morphological observation) (dental pulp [1]; Example 1, 28 days): found to cause dental pulp regeneration of loose connective tissues rich in blood vessels
infiltration / internal absorption of inflammatory cells (dental pulp [1]; Example 1, 28 days): neither the infiltration nor internal absorption of inflammatory cells was observed
amount of the regenerated dental pulp (ratio of regenerated dental pulp area to dental pulp cavity area) (dental pulp [1]; Example 1, 28 days): No statistically significant difference
angiogenesis (lectin staining) (dental pulp [1]; Example 1, day 28 specimens): confirmed
neurite extension (PGP9.5 immunostaining) (dental pulp [1]; Example 1, day 28 specimens): confirmed
odontoblast-like cell adhesion to dentin side wall / dentin-like hard tissue formation (dental pulp [1]; Example 1, day 28 specimens): odontoblast-like cells adhere to the side wall of the dentin to form dentin-like hard tissues
regeneration of dental pulp-like tissues (H-E staining) (dental pulp [1]; Example 2, 11-month-old dogs, 1.25 μg compound B + 150 ng G-CSF in collagen, 28 days): found to sufficiently regenerate dental pulp-like tissues
amount of the regenerated dental pulp versus filler containing no compound B (dental pulp [1]; Example 2, 28 days): Statistically significant difference
angiogenesis (BS-1 lectin staining) versus filler containing no compound B (dental pulp [1]; Example 2, 28 days): similar
neurite extension (PGP9.5 immunostaining) versus filler containing no compound B (dental pulp [1]; Example 2, 28 days): similar
regeneration of dental pulp tissues (H-E staining) (dental pulp [1]; Example 3, 11-month-old dogs, with or without trypsin pretreatment, 1.25 μg compound B + 150 ng G-CSF in collagen, 28 days): regeneration of dental pulp tissues was observed, regardless of whether trypsin pretreatment was performed or not
amount of regenerated dental pulp, with versus without trypsin pretreatment (dental pulp [1]; [3]): tended to slightly increase the amount of regenerated dental pulp, albeit with no statistically significant difference
odontoblast-like cell adhesion to dentin side wall and dentin-like hard tissue amount, with versus without trypsin pretreatment (dental pulp [1]; [3]): tended to allow more odontoblast-like cells to adhere to the side wall of the dentin and form dentin-like hard tissues in a slightly higher amount
angiogenesis (BS-1 lectin staining) (dental pulp [1]; [4]): similarly observed in both these cases
neurite extension (PGP9.5 immunostaining) (dental pulp [1]; [4]): similarly observed in both these cases
dental pulp regeneration, odontoblast-like cell adhesion and dentin-like hard tissue formation (dental pulp [1]; Example 3, without trypsin pretreatment, 28 days): regenerates the dental pulp with angiogenesis and neurite extension

CS(=O)(=O)Nc1cccc(CNCCN2Cc3ccc(F)cc3CC2Cc2ccc(F)cc2)c1.O=C(O)CC(O)(CC(=O)O)C(=O)O (single isomer, unassigned; (+)) [compound C, (+)-N-[3-(methanesulfonylamino)benzyl]-2-[6-fluoro-3-(4-fluorobenzyl)-3,4-dihydroisoquinolin-2(1H)-yl]ethanamine monocitrate]
regeneration of dental pulp-like tissues (H-E staining) (dental pulp [1]; Example 4, 11-month-old dogs, 1.2 μg compound C + 150 ng G-CSF in collagen, 28 days): found to sufficiently regenerate dental pulp-like tissues
area of the dentin (ratio to area of tooth) versus filler containing no compound C (dental pulp [1]; Example 4, 28 days): tended to increase the area of the dentin
density of dentin cells (within 1 mm from root canal side wall) versus filler containing no compound C (dental pulp [1]; Example 4, 28 days): increased the density of dentin cells

COC(=O)[C@H](Cc1ccc([N+](=O)[O-])cc1)NC(=O)c1cccc2ccccc12 [SB328437, reference compound]
dental pulp regeneration (H-E staining, morphological observation) (dental pulp [1]; Example 1, 28 days): found to cause dental pulp regeneration of loose connective tissues rich in blood vessels
infiltration / internal absorption of inflammatory cells (dental pulp [1]; Example 1, 28 days): neither the infiltration nor internal absorption of inflammatory cells was observed
amount of the regenerated dental pulp (ratio of regenerated dental pulp area to dental pulp cavity area) (dental pulp [1]; Example 1, 28 days): No statistically significant difference
angiogenesis (lectin staining) (dental pulp [1]; Example 1, day 28 specimens): confirmed
neurite extension (PGP9.5 immunostaining) (dental pulp [1]; Example 1, day 28 specimens): confirmed
odontoblast-like cell adhesion to dentin side wall / dentin-like hard tissue formation (dental pulp [1]; Example 1, day 28 specimens): odontoblast-like cells adhere to the side wall of the dentin to form dentin-like hard tissues

trypsin
adhesion of the cells (dental pulp stem cells): increased the adhesion of the cells
differentiation into odontoblasts (dental pulp stem cells): exhibited enhancement in differentiation into odontoblasts
dental pulp regeneration (dental pulp [2]; middle-aged and elderly dogs, with dental pulp stem cell transplantation): promoted
dental pulp regeneration (dental pulp [2]; without the transplantation of dental pulp stem cells): rarely observed
dental pulp regeneration (dental pulp [2]; young dogs, with dental pulp stem cell transplantation): not found to be effective
